In patent EP1391197B1, “Process for preparation of compositions with a high content in avarol and their use” (KliniPharm GmbH, priority 2002, dated 2004) one finds IC50 data, which are given here for one molecule.

The test has as its target T1, 5-Lipoxygenase (Homo sapiens, UniProt P09917).
T1 construct: Granulozyten freiwilliger Spender; endogenous in cells; host or cells: granulocytes of volunteer donors
T1 sequence (P09917 1-674): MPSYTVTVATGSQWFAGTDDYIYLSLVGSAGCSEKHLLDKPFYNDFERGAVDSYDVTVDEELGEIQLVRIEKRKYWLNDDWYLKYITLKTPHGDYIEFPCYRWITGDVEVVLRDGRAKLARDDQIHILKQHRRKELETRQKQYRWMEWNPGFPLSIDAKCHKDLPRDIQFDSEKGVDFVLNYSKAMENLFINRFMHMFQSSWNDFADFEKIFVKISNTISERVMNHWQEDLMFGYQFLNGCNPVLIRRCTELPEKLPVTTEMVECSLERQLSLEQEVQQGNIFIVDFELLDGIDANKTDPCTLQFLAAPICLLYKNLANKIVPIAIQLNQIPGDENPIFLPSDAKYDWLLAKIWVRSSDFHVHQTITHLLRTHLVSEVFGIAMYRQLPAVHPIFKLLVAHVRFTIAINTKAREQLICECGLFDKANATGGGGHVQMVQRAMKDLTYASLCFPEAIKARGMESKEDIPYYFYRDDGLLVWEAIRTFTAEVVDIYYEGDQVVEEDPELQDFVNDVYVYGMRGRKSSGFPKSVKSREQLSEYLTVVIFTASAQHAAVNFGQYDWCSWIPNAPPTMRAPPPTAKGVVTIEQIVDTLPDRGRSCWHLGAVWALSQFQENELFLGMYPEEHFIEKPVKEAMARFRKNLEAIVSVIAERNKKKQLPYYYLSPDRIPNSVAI
The test is described as follows: 5-lipoxygenase test in granulocytes (HPLC of 5-lipoxygenase products). In kind it is cell-based. To be noted: granulocytes of volunteer donors, arachidonic acid and calcium ionophore, 37°C, 10 min, pH 7,4; read-out: IC50- Wert (Bildung von Biotransformationsprodukten der 5-Lipoxygenase). Here is the method:
Granulozyten freiwilliger Spender [5-10 x 10^6 / ml] wurden in gepufferter physiologischer Kochsalzlösung [pH 7,4] mit Arachidonsäure [40µmol] und Calciumionophor [10µmol] und steigenden Konzentrationen [10nMol bis 10µMol] der Prüfsubstanzen, Avarol bzw. einer Avarol - Zusammensetzung gemäß Beispiel 3, bei 37°C 10 Minuten lang inkubiert. Anschließend wurden die Reaktion durch Zugabe von 1ml Methanol beendet, die Proben zentrifugiert und die Konzentration an Biotransformations-Produkten der 5-Lipoxygenase im Überstand per HPLC im UV bei 280 und 235nm analysiert. Avarol und die neue Zusammensetzung mit hohem Avarolgehalt, der Dysidea avara-Nativextrakt, hemmten die Bildung von Biotransformationsprodukten der 5-Lipoxygenase. Die IC50- Werte unterschieden sich aber auffällig deutlich. Während für Avarol ein IC50- Wert von 1,3 µM ermittelt wurde, der sich mit Literaturangaben deckt, hemmte die neue Zusammensetzung die Bildung von Produkten der 5-Lipoxygenase bereits mit einem IC50- Wert von 58 nM und war damit überraschend stärker wirksam als Avarol.

With `CC1=CCC[C@H]2[C@](C)(Cc3cc(O)ccc3O)[C@@H](C)CC[C@]12C` [Avarol], the IC50 worked out at 1300 nM.

A word on the IC50: it is the concentration that gives 50% inhibition.
